Measured values as given in the supplement of paper PMC11451515.

Tests used:
Conditions in all cases: 48 h
NOMO1 [1] = assay: cell viability relative to DMSO control; higher = less cytotoxic
How it was run: (§1)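 Three leukemia lines were tested: NOMO1 and SEM at 500 cells/well and P12-Ichikawa at 1000 cells/well. Each was adapted for at least four passages in each medium and seeded in 5 μl in 1536-well plates, and library compounds in DMSO were pin-dosed from 47 μM to 0.79 nM in 11 threefold steps. After 48 h at 37°C, CellTiter-Glo One luminescence was read. Viability is a percentage relative to DMSO wells on each plate, with cell-free wells as background.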

P12-Ichikawa [2] = assay: as above
How it was run: as §1

SEM cells [3] = assay: as above
How it was run: as §1

NOMO1 [4] = assay: AUC of viability dose-response curve (% viability x log10 dose units); higher = less sensitive
How it was run: (§2)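 Over 48 h at 37°C, leukemia cells in 1536-well plates (500 or 1000 cells/well), adapted to each medium, received library compounds in DMSO at 11 threefold doses from 47 μM to 0.79 nM. CellTiter-Glo One luminescence, normalised per plate to DMSO and cell-free wells, was fitted by a four-parameter log-logistic function of log10 dose. The area under the curve was then integrated by trapezoidal rule, after scaling curves above full viability and removing those that failed quality control.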

P12-Ichikawa [5] = assay: as above
How it was run: as §2

SEM cells [6] = assay: as above
How it was run: as §2

Oc1nc(-c2ccc(C(F)(F)F)cc2)nc2c1CSCC2
cell viability [%]
Conditions	NOMO1 [1]	P12-Ichikawa [2]	SEM cells [3]
HPLM + 10% dialyzed FBS, 0.000781 µM	125	102	90.6
HPLM + 10% dialyzed FBS, 0.00234 µM	90.4	109	95.7
HPLM + 10% dialyzed FBS, 0.00702 µM	96.4	96.1	107
HPLM + 10% dialyzed FBS, 0.0211 µM	81.1	102	50.8
HPLM + 10% dialyzed FBS, 0.0632 µM	98	109	110
HPLM + 10% dialyzed FBS, 0.19 µM	93.4	108	106
HPLM + 10% dialyzed FBS, 0.569 µM	111	106	97.4
HPLM + 10% dialyzed FBS, 1.71 µM	98.4	98.1	97.8
HPLM + 10% dialyzed FBS, 5.12 µM	118	100	91.1
HPLM + 10% dialyzed FBS, 15.4 µM	94	91.5	84.3
HPLM + 10% dialyzed FBS, 46.1 µM	100	94	79.6
RPMI 5 mM glucose + 10% FBS, 0.000781 µM	88.5	101	101
RPMI 5 mM glucose + 10% FBS, 0.00234 µM	88	102	102
RPMI 5 mM glucose + 10% FBS, 0.00702 µM	93.5	100	92.6
RPMI 5 mM glucose + 10% FBS, 0.0211 µM	91.8	84.2	39.7
RPMI 5 mM glucose + 10% FBS, 0.0632 µM	95.5	107	113
RPMI 5 mM glucose + 10% FBS, 0.19 µM	97.9	99.5	107
RPMI 5 mM glucose + 10% FBS, 0.569 µM	96.2	108	113
RPMI 5 mM glucose + 10% FBS, 1.71 µM	87.6	99	111
RPMI 5 mM glucose + 10% FBS, 5.12 µM	85.8	87.7	114
RPMI 5 mM glucose + 10% FBS, 15.4 µM	104	96.8	95.6
RPMI 5 mM glucose + 10% FBS, 46.1 µM	88.2	85.4	86
RPMI 5 mM glucose + 10% dialyzed FBS, 0.000781 µM	92.6	95.1	97.9
RPMI 5 mM glucose + 10% dialyzed FBS, 0.00234 µM	99.8	90.9	96.6
RPMI 5 mM glucose + 10% dialyzed FBS, 0.00702 µM	105	95.5	105
RPMI 5 mM glucose + 10% dialyzed FBS, 0.0211 µM	94.3	86.3	47
RPMI 5 mM glucose + 10% dialyzed FBS, 0.0632 µM	98.1	90.7	105
RPMI 5 mM glucose + 10% dialyzed FBS, 0.19 µM	102	94.7	114
RPMI 5 mM glucose + 10% dialyzed FBS, 0.569 µM	91.8	94.4	111
RPMI 5 mM glucose + 10% dialyzed FBS, 1.71 µM	102	99	98.3
RPMI 5 mM glucose + 10% dialyzed FBS, 5.12 µM	98.4	87.6	93.6
RPMI 5 mM glucose + 10% dialyzed FBS, 15.4 µM	99.4	87.8	82.6
RPMI 5 mM glucose + 10% dialyzed FBS, 46.1 µM	90.4	79.3	85.2

AUC of viability dose-response curve
Conditions	NOMO1 [4]	P12-Ichikawa [5]	SEM cells [6]
HPLM + 10% dialyzed FBS	477	464	438
RPMI 5 mM glucose + 10% FBS	441	464	457
RPMI 5 mM glucose + 10% dialyzed FBS	466	436	449

CCCCN(CCCC)CC(O)c1cc(Cl)cc2c1-c1ccc(Cl)cc1/C2=C/c1ccc(Cl)cc1 (stereo unspecified)
cell viability [%]
Conditions	NOMO1 [1]	P12-Ichikawa [2]	SEM cells [3]
HPLM + 10% dialyzed FBS, 0.000781 µM	94.7	97.6	93.1
HPLM + 10% dialyzed FBS, 0.00234 µM	87.5	99.8	95.5
HPLM + 10% dialyzed FBS, 0.00702 µM	104	114	93.1
HPLM + 10% dialyzed FBS, 0.0211 µM	107	107	108
HPLM + 10% dialyzed FBS, 0.0632 µM	93.6	107	99
HPLM + 10% dialyzed FBS, 0.19 µM	107	111	107
HPLM + 10% dialyzed FBS, 0.569 µM	90.5	109	111
HPLM + 10% dialyzed FBS, 1.71 µM	97.9	117	105
HPLM + 10% dialyzed FBS, 5.12 µM	82.6	104	109
HPLM + 10% dialyzed FBS, 15.4 µM	95	121	104
HPLM + 10% dialyzed FBS, 46.1 µM	92.6	117	106
RPMI 5 mM glucose + 10% FBS, 0.000781 µM	83.3	98.6	80.9
RPMI 5 mM glucose + 10% FBS, 0.00234 µM	102	102	95.7
RPMI 5 mM glucose + 10% FBS, 0.00702 µM	94.6	107	85.6
RPMI 5 mM glucose + 10% FBS, 0.0211 µM	87.1	98	95.7
RPMI 5 mM glucose + 10% FBS, 0.0632 µM	105	102	95.1
RPMI 5 mM glucose + 10% FBS, 0.19 µM	86.9	117	98.4
RPMI 5 mM glucose + 10% FBS, 0.569 µM	87.5	104	94.6
RPMI 5 mM glucose + 10% FBS, 1.71 µM	90.7	113	89.9
RPMI 5 mM glucose + 10% FBS, 5.12 µM	104	97.5	98.6
RPMI 5 mM glucose + 10% FBS, 15.4 µM	94.9	109	91.2
RPMI 5 mM glucose + 10% FBS, 46.1 µM	97.8	82.5	78.9
RPMI 5 mM glucose + 10% dialyzed FBS, 0.000781 µM	104	83.9	88.9
RPMI 5 mM glucose + 10% dialyzed FBS, 0.00234 µM	91.8	99.7	94.4
RPMI 5 mM glucose + 10% dialyzed FBS, 0.00702 µM	93.7	101	89.3
RPMI 5 mM glucose + 10% dialyzed FBS, 0.0211 µM	104	107	89.6
RPMI 5 mM glucose + 10% dialyzed FBS, 0.0632 µM	99.4	96.9	78.9
RPMI 5 mM glucose + 10% dialyzed FBS, 0.19 µM	104	98.1	94.4
RPMI 5 mM glucose + 10% dialyzed FBS, 0.569 µM	102	97.5	94.5
RPMI 5 mM glucose + 10% dialyzed FBS, 1.71 µM	89.8	103	97.7
RPMI 5 mM glucose + 10% dialyzed FBS, 5.12 µM	95.4	104	101
RPMI 5 mM glucose + 10% dialyzed FBS, 15.4 µM	72.9	107	80.5
RPMI 5 mM glucose + 10% dialyzed FBS, 46.1 µM	103	107	91.3

AUC of viability dose-response curve
Conditions	NOMO1 [4]	P12-Ichikawa [5]	SEM cells [6]
HPLM + 10% dialyzed FBS	456	446	463
RPMI 5 mM glucose + 10% FBS	449	472	438
RPMI 5 mM glucose + 10% dialyzed FBS	461	448	434
